How the values were obtained:
[1] = system: Arabidopsis seeds; test: Germination of Arabidopsis seeds on MS medium with DKN, with or without homogentisate; format: in vivo
Description: 1 Murashige and Skoog medium (T. Murashige and F. Skoog, 1962. A revised medium for a rapid growth and bioassays with tobacco tissue culture. Physiol. Plant. 15, 473-479), control experiment for germination
2 MS medium plus DKN at a dose of 1 ppm
3 MS medium plus DKN at the same dose+homogentisate at a concentration of 5 mM.

[2] = system: HPP oxidase (HPPO); test: HPP oxidase activity assay (colorimetric / HPLC), influence of added compounds; format: biochemical, Arthrobacter globiformis; conditions: 115 ppm
Description: The enzyme reaction is stopped by adding 2,4-dinitrophenylhydrazine (2,4-DNPH), in solution in 2 M HCl. The 2, 4-DNPH reacts with the ketone function in the alpha position of a carboxylic function (example: HPP). […] When the HPP is completely converted to 4-HPA during the enzyme reaction, the hydrazone cannot form, and the characteristic yellow color of 2,4-DHPA is therefore obtained in basic medium. If the HPP is not completely converted to 4-HPA during the enzyme reaction, the formation of hydrazone is possible. These hydrazones are brown in color in basic medium. A variation in color between these two extremes is obtained as a function of the amount of HPP consumed. The absorption measurements are carried out at 445 or 450 nm. In order to make this assay more easy to handle, we adapted it to the 96-well microplate format. The reaction mixture comprises GSH (900 μM); HPP (135 μM); TPP (1.8 mM); MgCl2 (4.5 mM); FAD (4 μM); potassium phosphate buffer (90 mM) pH 7.4. The mixture is kept on ice. 50 μL of the test fraction and 150 μL of reaction mixture are placed in each well. After 20 min at 30° C., the enzyme reaction is stopped with 13 μL of 2,4-DNPH solution (0.1% in 2 M HCl). The mixture is left to react for 20 min at ambient temperature. […] To prepare the standard range, reaction mixtures with varying concentrations of HPP are prepared. […]

[3] = medium 2: MS medium plus DKN at 1 ppm

With `CS(=O)(=O)c1cc(C(F)(F)F)ccc1C(=O)C(C#N)C(=O)C1CC1` (centres unmarked) [DKN] the “germination and pigmentation of the plantlet” value [1, 3] was “germination occurs, but the plantlet which emerges is white, the two cotyledons exhibiting no pigmentation”, the “survival of the plantlets” value [1, 3] was “die in a few days” and the “germination and pigmentation of the plantlet” value ([1]; medium 3: MS medium plus DKN 1 ppm + homogentisate 5 mM) was “germination occurs normally, the cotyledons are clearly green”. For the same compound, the “later development of the plants” value ([1]; medium 3: MS medium plus DKN 1 ppm + homogentisate 5 mM, as homogentisate in the medium decreases) was “the first symptoms of bleaching appear and plant growth stops, they end up dying”.
`CC(C)C1(C)N=C(c2ncccc2C(=O)O)NC1=O` (centres unmarked) [imazapyr] was tested, and the “inhibition of the HPPO” value [2] was “not inhibited”.

— patent US9051579B2, “Herbicide-tolerant plants through bypassing metabolic pathway” (Bayer S.A.S., priority 2000, dated 2015)
